In patent publication US20200155532A1, “METHOD FOR TREATING VIRAL INFECTIONS WITH LOPERAMIDE” (priority 2018, published 2020):

Tested on: herpes viral infections
Test: treating herpes outbreaks with loperamide taken by mouth
Format: in vivo
Details: herpes outbreak; patient taking loperamide
From the text: Referring to FIG. 1, the present invention may include a new use of loperamide 100 as an anti-viral agent. Herpes, which erupts during stress and may include repeated flare-ups over, sometimes, weeks may be treated with the new use of loperamide 100 disclosed herein, which tends to eliminate this recycling when taken at every flare-up. Specifically, the new use 100 of loperamide as an anti-viral agent may have the following steps: at the onset of symptoms, the user takes the recommended amount at the recommended time intervals, such as two 2 mg loperamide tablets four or five times a day, in step 110; if pain persists, the user may review the dosage, in step 120; after 72 hours, when pain has subsided and blisters are gone or only thin scabs, the patient may discontinue use in step 130; magnesium hydroxide may be used for bowel function during treatment, in step 140; and in the case of a new flare-up, the user-patient may repeat the dosage cycle in step 150.

SMILES: CN(C)C(=O)C(CCN1CCC(O)(c2ccc(Cl)cc2)CC1)(c1ccccc1)c1ccccc1 [loperamide]
- effect on the virus's activity: stop the virus's activity
- time to full recovery: three
- time to stop the pain: ≤ 30 min
